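Tested at 5 concentrations; 48 h exposure; 96-well plates; endpoints linearly interpolated, else capped at highest concentration. GI50 marks 50% less growth.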 The source made the active and inactive calls. No stated cut-off is given here; in the data, active = GI50 up to about 1.1 µM and inactive = higher.
What was measured:
Assay in all cases: DTP human tumour cell line panel, 48 h
[1] = system: DMS-114
[2] = system: HOP-18
[3] = system: KM-20L2
[4] = system: LXFL 529
[5] = system: M19-MEL
[6] = system: RXF 631
[7] = system: SNB-78
[8] = system: DMS-273
[9] = system: XF498

Compound	GI50 [1]	GI50 [2]	GI50 [3]	GI50 [4]	GI50 [5]	GI50 [6]	GI50 [7]	GI50 [8]	GI50 [9]
C#CCNC(=O)NCCCC(NC(C)=O)C(=O)NCc1ccccc1 (configuration not stated)	> 100 µM (inactive)	> 100 µM (inactive)	> 100 µM (inactive)	> 100 µM (inactive)	> 100 µM (inactive)	> 100 µM (inactive)	> 100 µM (inactive)		
O=C(CCC(=O)Nc1ccc(Cl)cc1)CC(=O)c1ccc2ccccc2c1	> 100 µM (inactive)	> 100 µM (inactive)	> 100 µM (inactive)	> 100 µM (inactive)	> 100 µM (inactive)	> 100 µM (inactive)	> 100 µM (inactive)	> 100 µM (inactive)	
C1OC1CN1CCN(CC2CO2)CC1 (configuration not stated)	12.8 µM (inactive)	66.7 µM (inactive)	> 100 µM (inactive)	> 100 µM (inactive)	> 100 µM (inactive)		> 100 µM (inactive)	16.1 µM (inactive)	> 100 µM (inactive)
CC(C)(C)C1=CC(=C2C(=O)C(=O)c3ccccc3C2=O)C=C(C(C)(C)C)C1=O	31.3 µM (inactive)	36.2 µM (inactive)	> 100 µM (inactive)	26.9 µM (inactive)	75.3 µM (inactive)		> 100 µM (inactive)	59.8 µM (inactive)	
Cc1cccc(C)c1N1C(=O)C(=O)C(c2nc3ccccc3s2)/C(=N\N)C1=O (configuration not stated)	60.8 µM (inactive)	49.7 µM (inactive)	> 100 µM (inactive)	40.8 µM (inactive)	> 100 µM (inactive)	> 100 µM (inactive)	> 100 µM (inactive)	> 100 µM (inactive)	
CCOC(=O)C(OCC1CC=CCC1)Sc1ccccc1 (configuration not stated)	> 100 µM (inactive)	> 100 µM (inactive)	> 100 µM (inactive)	> 100 µM (inactive)	> 100 µM (inactive)		> 100 µM (inactive)	> 100 µM (inactive)	
CC(C)C(=O)N[C@@H](C)C(=O)N(Cc1ccc2ccccc2c1)N=O	33.7 µM (inactive)	0.057 µM (active)	> 100 µM (inactive)	71.9 µM (inactive)	97.7 µM (inactive)		> 100 µM (inactive)	28.8 µM (inactive)	> 100 µM (inactive)
C/C(=N\NC(N)=S)c1ccc(C)cc1C		> 100 µM (inactive)	> 100 µM (inactive)	39.1 µM (inactive)	36.9 µM (inactive)	91 µM (inactive)	> 100 µM (inactive)	> 100 µM (inactive)	43.1 µM (inactive)
COC(=O)C(Cc1nc2ccc(Cl)cc2nc1O)/C(=N\N)C(=O)Nc1cc(C)c(Cl)cc1S(=O)(=O)O (configuration not stated)	73.5 µM (inactive)			> 100 µM (inactive)			> 100 µM (inactive)		
C#Cc1ccccc1N1C(=O)C=CC1=O	> 100 µM (inactive)		> 100 µM (inactive)	> 100 µM (inactive)	> 100 µM (inactive)		> 100 µM (inactive)		
O=C1C=C2CCCC2C(C(=O)O)(C(=O)O)C1 (configuration not stated)	> 100 µM (inactive)			> 100 µM (inactive)	> 100 µM (inactive)	> 100 µM (inactive)	> 100 µM (inactive)	> 100 µM (inactive)	> 100 µM (inactive)
Cc1ccc(NC(=O)C(=O)C(C2C(C)CC(=O)C2CC(=O)O)[N+](=O)[O-])cc1 (configuration not stated)	> 100 µM (inactive)		> 100 µM (inactive)	> 100 µM (inactive)			> 100 µM (inactive)		> 100 µM (inactive)
COC1[C@H](NC(=O)OC(C)(C)C)C(=O)N1Cc1ccccc1 (some centres not stated)	> 100 µM (inactive)		> 100 µM (inactive)	> 100 µM (inactive)	> 100 µM (inactive)		> 100 µM (inactive)	> 100 µM (inactive)	> 100 µM (inactive)
O=C1C/C(Br)=C\c2ccccc2-c2ccccc21	2.79 µM (inactive)	4.48 µM (inactive)	2.84 µM (inactive)	1.73 µM (inactive)	1.87 µM (inactive)		3.85 µM (inactive)	2.19 µM (inactive)	1.76 µM (inactive)
O=C1NC2=C(CCCCC/C2=N\O)C12CCCCCC2	> 100 µM (inactive)	> 100 µM (inactive)		> 100 µM (inactive)	> 100 µM (inactive)		> 100 µM (inactive)	> 100 µM (inactive)	> 100 µM (inactive)
Cc1nc2cc(N)c(F)cc2[nH]1	> 100 µM (inactive)			> 100 µM (inactive)	> 100 µM (inactive)		> 100 µM (inactive)	> 100 µM (inactive)	> 100 µM (inactive)
O=C1C=C(O)C(=Cc2c(O)cc(O)cc2O)C(O)=C1	> 100 µM (inactive)	> 100 µM (inactive)	> 100 µM (inactive)	> 100 µM (inactive)	> 100 µM (inactive)	> 100 µM (inactive)	> 100 µM (inactive)	> 100 µM (inactive)	> 100 µM (inactive)
Cc1ccccc1Cn1nc2ccccc2cc1=O	> 100 µM (inactive)	> 100 µM (inactive)	> 100 µM (inactive)		> 100 µM (inactive)		> 100 µM (inactive)	> 100 µM (inactive)	> 100 µM (inactive)
CC(C)=CC(=O)CC(=O)C(=O)NCCNC(=O)C(=O)CC(=O)C=C(C)C	> 50 µM (inactive)	> 50 µM (inactive)	> 50 µM (inactive)	> 50 µM (inactive)	> 50 µM (inactive)		> 50 µM (inactive)	> 50 µM (inactive)	> 50 µM (inactive)
CCCC(=O)C(CC)/C(CCC(=O)N(Cc1ccccc1)Cc1ccccc1)=N/NC(=O)C[N+](C)(C)C (configuration not stated)	> 100 µM (inactive)	> 100 µM (inactive)	> 100 µM (inactive)	> 100 µM (inactive)	> 100 µM (inactive)		> 100 µM (inactive)	> 100 µM (inactive)	65.2 µM (inactive)
O=C(Nc1nc2ncn(CCO)c2c(=S)[nH]1)c1ccccc1	> 100 µM (inactive)	> 100 µM (inactive)	> 100 µM (inactive)	> 100 µM (inactive)	> 100 µM (inactive)	> 10 µM (inactive)	> 100 µM (inactive)	> 100 µM (inactive)	> 100 µM (inactive)
CN(C)CCC[N+]1=Nc2cccc3cccc(c23)N1	60.3 µM (inactive)	> 100 µM (inactive)	23.7 µM (inactive)	49.8 µM (inactive)	48.2 µM (inactive)	> 100 µM (inactive)	> 100 µM (inactive)	18.8 µM (inactive)	> 100 µM (inactive)
C/C(=C1/CCCC2(N=NCC2c2ccccc2)C1=O)c1ccccc1 (configuration not stated)	9.16 µM (inactive)	51.1 µM (inactive)	25.6 µM (inactive)	17.3 µM (inactive)	22.3 µM (inactive)		25.4 µM (inactive)	15.9 µM (inactive)	17.4 µM (inactive)

From ChEMBL document CHEMBL1201862, “PubChem BioAssay data set” (2004)
